Reference: the NIST ThermoML archive (doi:10.1016/j.jct.2009.11.014)

Settings: Liquid; for mass density: vibrating tube; for viscosity: Stony Brook Scientific falling needle HPHTV-100 viscometer

CCCCn1cc[n+](C)c1.F[B-](F)(F)F [1-butyl-3-methylimidazolium tetrafluoroborate]
Settings	mass density [kg/m3]	viscosity [mPa·s]
283.15 K, 100 kPa	1212.53	–
283.15 K, 2000 kPa	1213.37	–
283.15 K, 4000 kPa	1214.24	–
283.15 K, 6000 kPa	1215.13	–
283.15 K, 8000 kPa	1216	–
283.15 K, 10000 kPa	1216.89	–
283.15 K, 12000 kPa	1217.77	–
283.15 K, 14000 kPa	1218.63	–
283.15 K, 20000 kPa	1221.2	–
283.15 K, 30000 kPa	1225.42	–
283.15 K, 40000 kPa	1229.49	–
283.15 K, 50000 kPa	1233.46	–
283.15 K, 60000 kPa	1237.32	–
285.05 K, 110 kPa	–	197.8
285.05 K, 14190 kPa	–	236.6
285.15 K, 110 kPa	–	197.5
285.15 K, 660 kPa	–	197.8
285.15 K, 1660 kPa	–	200.2
285.15 K, 2660 kPa	–	202.7
285.15 K, 4070 kPa	–	206.4
285.15 K, 6100 kPa	–	211
285.15 K, 8180 kPa	–	215.4
285.15 K, 10150 kPa	–	220.7
285.15 K, 12050 kPa	–	226.1
288.15 K, 100 kPa	1208.87	–
288.15 K, 2000 kPa	1209.73	–
288.15 K, 4000 kPa	1210.65	–
288.15 K, 6000 kPa	1211.56	–
288.15 K, 8000 kPa	1212.45	–
288.15 K, 10000 kPa	1213.34	–
288.15 K, 12000 kPa	1214.22	–
288.15 K, 14000 kPa	1215.09	–
288.15 K, 20000 kPa	1217.71	–
288.15 K, 30000 kPa	1221.96	–
288.15 K, 40000 kPa	1226.06	–
288.15 K, 50000 kPa	1230.05	–
288.15 K, 60000 kPa	1233.94	–
293.15 K, 100 kPa	1205.25	–
293.15 K, 2000 kPa	1206.11	–
293.15 K, 4000 kPa	1207.04	–
293.15 K, 6000 kPa	1207.96	–
293.15 K, 8000 kPa	1208.85	–
293.15 K, 10000 kPa	1209.74	–
293.15 K, 12000 kPa	1210.69	–
293.15 K, 14000 kPa	1211.59	–
293.15 K, 20000 kPa	1214.19	–
293.15 K, 30000 kPa	1218.46	–
293.15 K, 40000 kPa	1222.59	–
293.15 K, 50000 kPa	1226.61	–
293.15 K, 60000 kPa	1230.53	–
293.85 K, 120 kPa	–	125.5
293.85 K, 710 kPa	–	126.4
293.85 K, 1690 kPa	–	127.1
293.85 K, 2640 kPa	–	128.5
293.85 K, 4150 kPa	–	130.9
293.85 K, 6130 kPa	–	132.7
293.85 K, 8200 kPa	–	134.9
293.85 K, 10200 kPa	–	137.4
293.85 K, 12000 kPa	–	142.1
293.85 K, 12230 kPa	–	143.2
293.85 K, 14330 kPa	–	146.1
293.85 K, 14700 kPa	–	146
298.15 K, 100 kPa	1201.64	–
298.15 K, 2000 kPa	1202.53	–
298.15 K, 4000 kPa	1203.45	–
298.15 K, 6000 kPa	1204.39	–
298.15 K, 8000 kPa	1205.3	–
298.15 K, 10000 kPa	1206.22	–
298.15 K, 12000 kPa	1207.12	–
298.15 K, 14000 kPa	1208	–
298.15 K, 20000 kPa	1210.64	–
298.15 K, 30000 kPa	1214.97	–
298.15 K, 40000 kPa	1219.15	–
298.15 K, 50000 kPa	1223.24	–
298.15 K, 60000 kPa	1227.21	–
303.15 K, 100 kPa	1198.09	–
303.15 K, 120 kPa	–	78.1
303.15 K, 770 kPa	–	80
303.15 K, 1680 kPa	–	82.4
303.15 K, 2000 kPa	1198.98	–
303.15 K, 2700 kPa	–	83.3
303.15 K, 4000 kPa	1199.92	–
303.15 K, 4170 kPa	–	84.4
303.15 K, 6000 kPa	1200.85	–
303.15 K, 6240 kPa	–	85.1
303.15 K, 6290 kPa	–	85
303.15 K, 8000 kPa	1201.78	–
303.15 K, 8180 kPa	–	88.3
303.15 K, 10000 kPa	1202.7	–
303.15 K, 10200 kPa	–	89.8
303.15 K, 12000 kPa	1203.62	–
303.15 K, 12110 kPa	–	91
303.15 K, 14000 kPa	1204.52	–
303.15 K, 14200 kPa	–	92.5
303.15 K, 14290 kPa	–	91.7
303.15 K, 20000 kPa	1207.18	–
303.15 K, 30000 kPa	1211.54	–
303.15 K, 40000 kPa	1215.79	–
303.15 K, 50000 kPa	1219.9	–
303.15 K, 60000 kPa	1223.89	–
308.15 K, 100 kPa	1194.52	–
308.15 K, 2000 kPa	1195.44	–
308.15 K, 4000 kPa	1196.38	–
308.15 K, 6000 kPa	1197.34	–
308.15 K, 8000 kPa	1198.26	–
308.15 K, 10000 kPa	1199.2	–
308.15 K, 12000 kPa	1200.1	–
308.15 K, 14000 kPa	1201.03	–
308.15 K, 20000 kPa	1203.74	–
308.15 K, 30000 kPa	1208.15	–
308.15 K, 40000 kPa	1212.4	–
308.15 K, 50000 kPa	1216.54	–
308.15 K, 60000 kPa	1220.57	–
313.15 K, 100 kPa	1191.01	–
313.15 K, 2000 kPa	1191.92	–
313.15 K, 4000 kPa	1192.9	–
313.15 K, 6000 kPa	1193.86	–
313.15 K, 8000 kPa	1194.8	–
313.15 K, 10000 kPa	1195.75	–
313.15 K, 12000 kPa	1196.67	–
313.15 K, 14000 kPa	1197.1	–
313.15 K, 20000 kPa	1200.34	–
313.15 K, 30000 kPa	1204.81	–
313.15 K, 40000 kPa	1209.11	–
313.15 K, 50000 kPa	1213.28	–
313.15 K, 60000 kPa	1217.34	–
313.45 K, 14310 kPa	–	59.4
313.55 K, 120 kPa	–	51.2
313.55 K, 710 kPa	–	51.7
313.55 K, 1650 kPa	–	52.3
313.55 K, 2690 kPa	–	52.5
313.55 K, 4250 kPa	–	53.4
313.55 K, 6260 kPa	–	54.3
313.55 K, 8200 kPa	–	54.9
313.55 K, 10200 kPa	–	56.2
318.15 K, 100 kPa	1187.48	–
318.15 K, 2000 kPa	1188.43	–
318.15 K, 4000 kPa	1189.42	–
318.15 K, 6000 kPa	1190.39	–
318.15 K, 8000 kPa	1191.39	–
318.15 K, 10000 kPa	1192.31	–
318.15 K, 12000 kPa	1193.27	–
318.15 K, 14000 kPa	1194.22	–
318.15 K, 20000 kPa	1196.98	–
318.15 K, 30000 kPa	1201.46	–
318.15 K, 40000 kPa	1205.83	–
318.15 K, 50000 kPa	1210.05	–
318.15 K, 60000 kPa	1214.15	–
323.15 K, 100 kPa	1184	–
323.15 K, 2000 kPa	1184.97	–
323.15 K, 4000 kPa	1185.97	–
323.15 K, 6000 kPa	1186.94	–
323.15 K, 8000 kPa	1187.91	–
323.15 K, 10000 kPa	1188.88	–
323.15 K, 12000 kPa	1189.84	–
323.15 K, 14000 kPa	1190.78	–
323.15 K, 20000 kPa	1193.6	–
323.15 K, 30000 kPa	1198.15	–
323.15 K, 40000 kPa	1202.55	–
323.15 K, 50000 kPa	1206.8	–
323.15 K, 60000 kPa	1210.94	–
324.8 K, 630 kPa	–	34.5
324.82 K, 120 kPa	–	34.3
324.85 K, 1700 kPa	–	34.8
324.85 K, 2590 kPa	–	35.2
324.85 K, 4050 kPa	–	35.3
324.85 K, 4260 kPa	–	35.8
324.85 K, 6160 kPa	–	36.5
324.85 K, 8160 kPa	–	36.7
324.85 K, 10450 kPa	–	37.5
324.85 K, 12130 kPa	–	38.4
324.85 K, 14150 kPa	–	39
